From the NIST ThermoML archive (doi:10.1016/j.jct.2004.12.014)
± gives the expanded uncertainty stated by the source.

What was measured:
[1] = excess molar enthalpy (molar enthalpy of mixing); xn = mol fraction of the nth substance listed; conditions: 318.15 K, 101 kPa, Liquid
[2] = xn = mol fraction of the nth substance listed; conditions: 318.15 K, 101 kPa, Liquid

CCCCCCCCCCC [undecane] + CCOC(=O)CC
Conditions	excess molar enthalpy [kJ/mol]	excess molar volume [m3/mol]
[1], x2 = 0.0755	0.383 ± 0.0076	–
[1], x2 = 0.1612	0.705 ± 0.013	–
[1], x2 = 0.2482	0.997 ± 0.017	–
[1], x2 = 0.3331	1.21 ± 0.02	–
[1], x2 = 0.4028	1.34 ± 0.022	–
[1], x2 = 0.4629	1.41 ± 0.023	–
[1], x2 = 0.5094	1.43 ± 0.024	–
[1], x2 = 0.5483	1.42 ± 0.024	–
[1], x2 = 0.5806	1.41 ± 0.023	–
[1], x2 = 0.6255	1.36 ± 0.023	–
[1], x2 = 0.6622	1.3 ± 0.022	–
[1], x2 = 0.7018	1.22 ± 0.021	–
[1], x2 = 0.7511	1.09 ± 0.018	–
[1], x2 = 0.7996	0.94 ± 0.016	–
[1], x2 = 0.8514	0.741 ± 0.013	–
[1], x2 = 0.9026	0.523 ± 0.0098	–
[1], x2 = 0.9521	0.279 ± 0.0062	–
[2], x2 = 0.0488	–	2.1e-07 ± 1.6e-08
[2], x2 = 0.1093	–	4.32e-07 ± 1.8e-08
[2], x2 = 0.1996	–	6.94e-07 ± 1.9e-08
[2], x2 = 0.2885	–	9.21e-07 ± 2e-08
[2], x2 = 0.3652	–	1.049e-06 ± 2e-08
[2], x2 = 0.4355	–	1.121e-06 ± 2.1e-08
[2], x2 = 0.5015	–	1.154e-06 ± 2.1e-08
[2], x2 = 0.5629	–	1.147e-06 ± 2.1e-08
[2], x2 = 0.621	–	1.119e-06 ± 2.1e-08
[2], x2 = 0.6752	–	1.071e-06 ± 2e-08
[2], x2 = 0.7242	–	9.82e-07 ± 2e-08
[2], x2 = 0.7714	–	8.93e-07 ± 2e-08
[2], x2 = 0.816	–	7.79e-07 ± 1.9e-08
[2], x2 = 0.8558	–	6.55e-07 ± 1.9e-08
[2], x2 = 0.895	–	5.1e-07 ± 1.8e-08
[2], x2 = 0.9301	–	3.49e-07 ± 1.7e-08
[2], x2 = 0.9671	–	2.01e-07 ± 1.6e-08

CCCCOC(=O)CC [butyl propanoate] + CCCCCCCCC
Conditions	excess molar enthalpy [kJ/mol]	excess molar volume [m3/mol]
[1], x1 = 0.0694	0.267 ± 0.0058	–
[1], x1 = 0.1491	0.485 ± 0.0091	–
[1], x1 = 0.2269	0.665 ± 0.012	–
[1], x1 = 0.302	0.79 ± 0.014	–
[1], x1 = 0.3723	0.865 ± 0.015	–
[1], x1 = 0.4365	0.898 ± 0.015	–
[1], x1 = 0.4936	0.901 ± 0.015	–
[1], x1 = 0.5364	0.893 ± 0.015	–
[1], x1 = 0.5441	0.884 ± 0.015	–
[1], x1 = 0.5775	0.878 ± 0.015	–
[1], x1 = 0.5891	0.867 ± 0.015	–
[1], x1 = 0.6309	0.836 ± 0.015	–
[1], x1 = 0.6873	0.769 ± 0.013	–
[1], x1 = 0.7512	0.665 ± 0.012	–
[1], x1 = 0.8149	0.534 ± 0.0099	–
[1], x1 = 0.8787	0.372 ± 0.0074	–
[1], x1 = 0.9424	0.194 ± 0.0047	–
[2], x1 = 0.0333	–	9.9e-08 ± 1.6e-08
[2], x1 = 0.0721	–	1.95e-07 ± 1.6e-08
[2], x1 = 0.139	–	3.26e-07 ± 1.7e-08
[2], x1 = 0.2059	–	4.35e-07 ± 1.8e-08
[2], x1 = 0.2687	–	5.18e-07 ± 1.8e-08
[2], x1 = 0.3345	–	5.69e-07 ± 1.8e-08
[2], x1 = 0.3947	–	5.89e-07 ± 1.8e-08
[2], x1 = 0.4555	–	6.09e-07 ± 1.8e-08
[2], x1 = 0.5165	–	6.08e-07 ± 1.8e-08
[2], x1 = 0.5747	–	5.79e-07 ± 1.8e-08
[2], x1 = 0.6293	–	5.5e-07 ± 1.8e-08
[2], x1 = 0.6868	–	5.08e-07 ± 1.8e-08
[2], x1 = 0.7408	–	4.43e-07 ± 1.8e-08
[2], x1 = 0.7931	–	3.73e-07 ± 1.7e-08
[2], x1 = 0.8466	–	3.03e-07 ± 1.7e-08
[2], x1 = 0.8978	–	2.16e-07 ± 1.7e-08
[2], x1 = 0.9473	–	1.21e-07 ± 1.6e-08

CCCCCCCCCCCCCCCCC [heptadecane] + CCC(=O)OC
Conditions	excess molar enthalpy [kJ/mol]	excess molar volume [m3/mol]
[1], x2 = 0.0946	0.552 ± 0.01	–
[1], x2 = 0.2186	1.16 ± 0.02	–
[1], x2 = 0.3238	1.62 ± 0.027	–
[1], x2 = 0.4115	1.91 ± 0.031	–
[1], x2 = 0.4797	2.06 ± 0.034	–
[1], x2 = 0.5289	2.12 ± 0.035	–
[1], x2 = 0.5687	2.15 ± 0.035	–
[1], x2 = 0.5996	2.15 ± 0.035	–
[1], x2 = 0.6291	2.13 ± 0.035	–
[1], x2 = 0.6637	2.09 ± 0.034	–
[1], x2 = 0.6974	2.01 ± 0.033	–
[1], x2 = 0.7327	1.89 ± 0.031	–
[1], x2 = 0.7677	1.74 ± 0.029	–
[1], x2 = 0.8042	1.55 ± 0.026	–
[1], x2 = 0.8381	1.37 ± 0.023	–
[1], x2 = 0.8741	1.13 ± 0.019	–
[1], x2 = 0.909	0.896 ± 0.016	–
[1], x2 = 0.9409	0.619 ± 0.012	–
[1], x2 = 0.9721	0.315 ± 0.0075	–
[2], x2 = 0.0755	–	3.32e-07 ± 1.7e-08
[2], x2 = 0.1644	–	6.94e-07 ± 1.9e-08
[2], x2 = 0.3049	–	1.182e-06 ± 2.1e-08
[2], x2 = 0.409	–	1.452e-06 ± 2.2e-08
[2], x2 = 0.5004	–	1.581e-06 ± 2.3e-08
[2], x2 = 0.5739	–	1.623e-06 ± 2.3e-08
[2], x2 = 0.6379	–	1.592e-06 ± 2.3e-08
[2], x2 = 0.6942	–	1.504e-06 ± 2.2e-08
[2], x2 = 0.7425	–	1.39e-06 ± 2.2e-08
[2], x2 = 0.7831	–	1.271e-06 ± 2.1e-08
[2], x2 = 0.8219	–	1.128e-06 ± 2.1e-08
[2], x2 = 0.8553	–	9.81e-07 ± 2e-08
[2], x2 = 0.8846	–	8.56e-07 ± 1.9e-08
[2], x2 = 0.9369	–	5.66e-07 ± 1.8e-08
[2], x2 = 0.9596	–	4.18e-07 ± 1.7e-08
[2], x2 = 0.9803	–	2.34e-07 ± 1.7e-08

CCCCCOC(=O)CC [pentyl propanoate] + CCCCCCCCCCC
Conditions	excess molar enthalpy [kJ/mol]	excess molar volume [m3/mol]
[1], x1 = 0.0724	0.248 ± 0.0055	–
[1], x1 = 0.153	0.458 ± 0.0087	–
[1], x1 = 0.229	0.62 ± 0.011	–
[1], x1 = 0.3051	0.751 ± 0.013	–
[1], x1 = 0.3748	0.826 ± 0.014	–
[1], x1 = 0.4452	0.863 ± 0.015	–
[1], x1 = 0.5015	0.863 ± 0.015	–
[1], x1 = 0.5466	0.843 ± 0.015	–
[1], x1 = 0.556	0.838 ± 0.015	–
[1], x1 = 0.6046	0.802 ± 0.014	–
[1], x1 = 0.6573	0.748 ± 0.013	–
[1], x1 = 0.7137	0.674 ± 0.012	–
[1], x1 = 0.7726	0.585 ± 0.011	–
[1], x1 = 0.8314	0.468 ± 0.0088	–
[1], x1 = 0.8897	0.329 ± 0.0067	–
[1], x1 = 0.9449	0.182 ± 0.0045	–
[2], x1 = 0.079	–	1.89e-07 ± 1.6e-08
[2], x1 = 0.1498	–	3.48e-07 ± 1.7e-08
[2], x1 = 0.2179	–	4.36e-07 ± 1.8e-08
[2], x1 = 0.2836	–	5.2e-07 ± 1.8e-08
[2], x1 = 0.3484	–	5.69e-07 ± 1.8e-08
[2], x1 = 0.4116	–	6.03e-07 ± 1.8e-08
[2], x1 = 0.4733	–	6.14e-07 ± 1.8e-08
[2], x1 = 0.5329	–	6.13e-07 ± 1.8e-08
[2], x1 = 0.5902	–	5.99e-07 ± 1.8e-08
[2], x1 = 0.6462	–	5.83e-07 ± 1.8e-08
[2], x1 = 0.7023	–	5.24e-07 ± 1.8e-08
[2], x1 = 0.7545	–	4.67e-07 ± 1.8e-08
[2], x1 = 0.8065	–	3.79e-07 ± 1.7e-08
[2], x1 = 0.8561	–	3.1e-07 ± 1.7e-08
[2], x1 = 0.9045	–	2.2e-07 ± 1.7e-08
[2], x1 = 0.9538	–	1.21e-07 ± 1.6e-08

CCCCCOC(=O)CC [pentyl propanoate] + CCCCCCC
Conditions	excess molar enthalpy [kJ/mol]	excess molar volume [m3/mol]
[1], x1 = 0.0541	0.161 ± 0.0042	–
[1], x1 = 0.1161	0.304 ± 0.0063	–
[1], x1 = 0.1808	0.422 ± 0.0081	–
[1], x1 = 0.2438	0.515 ± 0.0095	–
[1], x1 = 0.3073	0.59 ± 0.011	–
[1], x1 = 0.3672	0.635 ± 0.011	–
[1], x1 = 0.4224	0.657 ± 0.012	–
[1], x1 = 0.445	0.661 ± 0.012	–
[1], x1 = 0.4906	0.666 ± 0.012	–
[1], x1 = 0.5414	0.656 ± 0.012	–
[1], x1 = 0.5976	0.625 ± 0.011	–
[1], x1 = 0.6595	0.573 ± 0.01	–
[1], x1 = 0.725	0.496 ± 0.0093	–
[1], x1 = 0.7935	0.396 ± 0.0077	–
[1], x1 = 0.8667	0.27 ± 0.0058	–
[1], x1 = 0.9349	0.141 ± 0.0038	–
[2], x1 = 0.0556	–	6.6e-08 ± 1.6e-08
[2], x1 = 0.1092	–	1.1e-07 ± 1.6e-08
[2], x1 = 0.182	–	1.41e-07 ± 1.6e-08
[2], x1 = 0.217	–	1.68e-07 ± 1.6e-08
[2], x1 = 0.2721	–	1.85e-07 ± 1.6e-08
[2], x1 = 0.3275	–	1.96e-07 ± 1.6e-08
[2], x1 = 0.3857	–	1.98e-07 ± 1.6e-08
[2], x1 = 0.4428	–	1.92e-07 ± 1.6e-08
[2], x1 = 0.5013	–	1.78e-07 ± 1.6e-08
[2], x1 = 0.5611	–	1.59e-07 ± 1.6e-08
[2], x1 = 0.6204	–	1.37e-07 ± 1.6e-08
[2], x1 = 0.6824	–	1.03e-07 ± 1.6e-08
[2], x1 = 0.742	–	7.7e-08 ± 1.6e-08
[2], x1 = 0.8047	–	4.9e-08 ± 1.6e-08
[2], x1 = 0.8674	–	2.9e-08 ± 1.6e-08
[2], x1 = 0.9323	–	9e-09 ± 1.6e-08
